How the values were obtained:
wheat = test: Test A postemergence; format: in vivo, Triticum aestivum; details: Triticum aestivum, post-emergence, 240 h, 0 to 100 scale (0 no effect, 100 complete control), approx. 10 d, read-out: Plant response rating, Wheat; for plant injury at 125 g/ha: 125 g ai/ha
Outline: (§1)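 Test chemicals in a non-phytotoxic solvent with surfactant were applied as a directed soil spray preemergence to seeds sown in loam/sand. Postemergence sprays went to plants 2–10 cm tall at the one- to two-leaf stage. A dash means no result.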

barnyardgrass [1] = test: Test A preemergence; format: in vivo, Echinochloa crus-galli; details: Echinochloa crus-galli, pre-emergence, 240 h, 0 to 100 scale (0 no effect, 100 complete control), read-out: Plant response rating, Barnyardgrass; for pest or weed control at 125 g/ha: 125 g ai/ha
Outline: as §1

foxtail, giant [2] = test: Test A postemergence; format: in vivo, Setaria faberii; details: Setaria faberi, post-emergence, 240 h, 0 to 100 scale (0 no effect, 100 complete control), approx. 10 d, read-out: Plant response rating, Foxtail, Giant; for pest or weed control at 125 g/ha: 125 g ai/ha
Outline: as §1

barnyardgrass [3] = test: Test B flooded paddy test; format: in vivo, Echinochloa crus-galli; details: Echinochloa crus-galli, 360 h, 125 g ai/ha, applied to paddy water at 2-leaf stage, visual rating after 13 to 15 d, scale 0 (no effect) to 100 (complete control), read-out: Plant response rating, Barnyardgrass, Flood
Outline: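 Pots were flooded to 3 cm above the soil at treatment, and compounds were applied directly into the paddy water. That depth was held throughout. After 13 to 15 d in a greenhouse, plants were rated visually against untreated controls.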

pigweed [4] = test: Test A postemergence; format: in vivo, Amaranthus retroflexus; details: Amaranthus retroflexus, post-emergence, 240 h, 0 to 100 scale (0 no effect, 100 complete control), approx. 10 d, read-out: Plant response rating, Pigweed; for pest or weed control at 125 g/ha: 125 g ai/ha
Outline: as §1

lambsquarters = test: Test C postemergence; format: in vivo, Chenopodium album
Excerpt: (§2) Seeds of plant species selected from blackgrass (Alopecurus myosuroides), ryegrass, Italian (Italian ryegrass, Lolium multiflorum), wheat (winter wheat, Triticum aestivum), galium (catchweed bedstraw, Galium aparine), corn (Zea mays), crabgrass, large (large crabgrass, Digitaria sanguinalis), foxtail, giant, (giant foxtail, Setaria faberii), johnsongrass (Sorghum halepense), lambsquarters (Chenopodium album), morningglory (Ipomoea coccinea), nutsedge, yellow (yellow nutsedge, Cyperus esculentus), pigweed (Amaranthus retroflexus), ragweed (common ragweed, Ambrosia elatior), soybean (Glycine max), barnyardgrass (Echinochloa crus-galli), oilseed rape (Brassica napus), waterhemp (common waterhemp, Amaranthus rudis), and velvetleaf (Abutilon theophrasti) were planted into a blend of loam soil and sand and treated preemergence with test chemicals formulated in a non-phytotoxic solvent mixture which included a surfactant. At the same time, plants selected from these crop and weed species and also chickweed (common chickweed, Stellaria media), oat, wild (wild oat, Avena fatua), and kochia (Kochia scoparia), were planted in pots containing Sunshine Redi-Earth® planting medium comprising spaghnum peat moss, vermiculite, starter nutrients and dolomitic limestone and treated with postemergence applications of test chemicals formulated in the same manner. Plants ranged in height from 2 to 18 cm (1- to 4-leaf stage) for postemergence treatments. […] A dash (-) response means no test result.

corn = test: Test C postemergence; format: in vivo, Zea mays
Excerpt: as §2

galium = test: Test C postemergence; format: in vivo, Galium aparine
Excerpt: as §2

velvetleaf = test: Test C postemergence; format: in vivo, Abutilon theophrasti
Excerpt: as §2

kochia = test: Test C postemergence; format: in vivo, Kochia scoparia
Excerpt: as §2

oilseed rape = test: Test C postemergence; format: in vivo, Brassica napus
Excerpt: as §2

crabgrass, large = test: Test C postemergence; format: in vivo, Digitaria sanguinalis
Excerpt: as §2

foxtail, giant [5] = test: Test C postemergence; format: in vivo, Setaria faberii
Excerpt: as §2

waterhemp = test: Test C postemergence; format: in vivo, Amaranthus rudis
Excerpt: as §2

barnyardgrass [6] = test: Test C postemergence; format: in vivo, Echinochloa crus-galli
Excerpt: as §2

pigweed [7] = test: Test C postemergence; format: in vivo, Amaranthus retroflexus
Excerpt: as §2

johnsongrass = test: Test C postemergence; format: in vivo, Sorghum halepense
Excerpt: as §2

blackgrass = test: Test C postemergence; format: in vivo, Alopecurus myosuroides
Excerpt: as §2

ragweed = test: Test C postemergence; format: in vivo, Ambrosia elatior
Excerpt: as §2

CCn1nc(-c2ccc(F)cc2)nc1C(O)c1ccnc(C(F)(F)F)c1 (stereo not drawn) [Compound 15, α-[1-Ethyl-3-(4-fluorophenyl)-1H-1,2,4-triazol-5-yl]-2-(trifluoromethyl)-4-pyridinemethanol] showed a plant injury at 125 g/ha (wheat) of 0%, a plant injury at 500 g/ha (wheat; 500 g ai/ha) of 0% and a pest or weed control at 125 g/ha (barnyardgrass [1]) of 0%. The pest or weed control at 500 g/ha (barnyardgrass [1]; 500 g ai/ha, approx. 10 d) was 0%, the pest or weed control at 125 g/ha (foxtail, giant [2]) was 0% and the pest or weed control at 500 g/ha (foxtail, giant [2]; 500 g ai/ha) was 10%. It also gave a pest or weed control at 125 g/ha (barnyardgrass [3]) of 0%, a pest or weed control at 125 g/ha (pigweed [4]) of 10% and a pest or weed control at 500 g/ha (pigweed [4]; 500 g ai/ha) of 70%.

CCOc1nc(-c2ccc(C(F)(F)F)cc2)nn1Cc1ccnc(C(F)(F)F)c1 [Compound 35, 4-[[5-ethoxy-3-[4-(trifluoromethyl)phenyl]-1H-1,2,4-triazole-1-yl]methyl]-2-(trifluoromethyl)pyridine] was tested, and the “Plant response rating (scale of 0 to 100 where 0 is no effect and 100 is complete control)” value (lambsquarters; 31 g ai/ha) was 98, the “Plant response rating (scale of 0 to 100 where 0 is no effect and 100 is complete control)” value (lambsquarters; 62 g ai/ha) was 95 and the “Plant response rating (scale of 0 to 100 where 0 is no effect and 100 is complete control)” value (lambsquarters; 125 g ai/ha) was 98. For the same compound, the “Plant response rating (scale of 0 to 100 where 0 is no effect and 100 is complete control)” value (lambsquarters; 250 g ai/ha) was 100, the “Plant response rating (scale of 0 to 100 where 0 is no effect and 100 is complete control)” value (corn; 31 g ai/ha) was 25 and the “Plant response rating (scale of 0 to 100 where 0 is no effect and 100 is complete control)” value (corn; 62 g ai/ha) was 20. For the same compound, the “Plant response rating (scale of 0 to 100 where 0 is no effect and 100 is complete control)” value (corn; 125 g ai/ha) was 25, the “Plant response rating (scale of 0 to 100 where 0 is no effect and 100 is complete control)” value (corn; 250 g ai/ha) was 50 and the “Plant response rating (scale of 0 to 100 where 0 is no effect and 100 is complete control)” value (galium; 31 g ai/ha) was 80. The “Plant response rating (scale of 0 to 100 where 0 is no effect and 100 is complete control)” value (galium; 62 g ai/ha) was 80, the “Plant response rating (scale of 0 to 100 where 0 is no effect and 100 is complete control)” value (galium; 125 g ai/ha) was 90 and the “Plant response rating (scale of 0 to 100 where 0 is no effect and 100 is complete control)” value (galium; 250 g ai/ha) was 90. The plant injury at 31 g/ha (wheat; 31 g ai/ha) was 40%, the plant injury at 125 g/ha (wheat) was 70% and the “Plant response rating (scale of 0 to 100 where 0 is no effect and 100 is complete control)” value (velvetleaf; 31 g ai/ha) was 65. For the same compound, the “Plant response rating (scale of 0 to 100 where 0 is no effect and 100 is complete control)” value (velvetleaf; 62 g ai/ha) was 75, the “Plant response rating (scale of 0 to 100 where 0 is no effect and 100 is complete control)” value (velvetleaf; 125 g ai/ha) was 80 and the “Plant response rating (scale of 0 to 100 where 0 is no effect and 100 is complete control)” value (velvetleaf; 250 g ai/ha) was 85. The “Plant response rating (scale of 0 to 100 where 0 is no effect and 100 is complete control)” value (kochia; 31 g ai/ha) was 90, the “Plant response rating (scale of 0 to 100 where 0 is no effect and 100 is complete control)” value (kochia; 62 g ai/ha) was 90 and the “Plant response rating (scale of 0 to 100 where 0 is no effect and 100 is complete control)” value (kochia; 125 g ai/ha) was 90. The “Plant response rating (scale of 0 to 100 where 0 is no effect and 100 is complete control)” value (kochia; 250 g ai/ha) was 90, the pest or weed control at 31 g/ha (barnyardgrass [1]; 31 g ai/ha) was 80% and the pest or weed control at 125 g/ha (barnyardgrass [1]) was 100%. The pest or weed control at 31 g/ha (foxtail, giant [2]; 31 g ai/ha) was 80%, the pest or weed control at 125 g/ha (foxtail, giant [2]) was 90% and the “Plant response rating (scale of 0 to 100 where 0 is no effect and 100 is complete control)” value (oilseed rape; Oilsee Rape, 250 g ai/ha) was 98. For the same compound, the “Plant response rating (scale of 0 to 100 where 0 is no effect and 100 is complete control)” value (oilseed rape; Oilseed Rape, 31 g ai/ha) was 80, the “Plant response rating (scale of 0 to 100 where 0 is no effect and 100 is complete control)” value (oilseed rape; Oilseed Rape, 62 g ai/ha) was 90 and the “Plant response rating (scale of 0 to 100 where 0 is no effect and 100 is complete control)” value (oilseed rape; Oilseed Rape, 125 g ai/ha) was 80. For the same compound, the “Plant response rating (scale of 0 to 100 where 0 is no effect and 100 is complete control)” value (crabgrass, large; 31 g ai/ha) was 35, the “Plant response rating (scale of 0 to 100 where 0 is no effect and 100 is complete control)” value (crabgrass, large; 62 g ai/ha) was 60 and the “Plant response rating (scale of 0 to 100 where 0 is no effect and 100 is complete control)” value (crabgrass, large; 125 g ai/ha) was 70. For the same compound, the “Plant response rating (scale of 0 to 100 where 0 is no effect and 100 is complete control)” value (crabgrass, large; 250 g ai/ha) was 80, the “Plant response rating (scale of 0 to 100 where 0 is no effect and 100 is complete control)” value (foxtail, giant [5]; 31 g ai/ha) was 25 and the “Plant response rating (scale of 0 to 100 where 0 is no effect and 100 is complete control)” value (foxtail, giant [5]; 62 g ai/ha) was 40. The “Plant response rating (scale of 0 to 100 where 0 is no effect and 100 is complete control)” value (foxtail, giant [5]; 125 g ai/ha) was 70, the “Plant response rating (scale of 0 to 100 where 0 is no effect and 100 is complete control)” value (foxtail, giant [5]; 250 g ai/ha) was 85 and the pest or weed control at 31 g/ha (pigweed [4]; 31 g ai/ha) was 100%. The pest or weed control at 125 g/ha (pigweed [4]) was 100%, the “Plant response rating (scale of 0 to 100 where 0 is no effect and 100 is complete control)” value (waterhemp; 31 g ai/ha) was 98 and the “Plant response rating (scale of 0 to 100 where 0 is no effect and 100 is complete control)” value (waterhemp; 62 g ai/ha) was 98. The “Plant response rating (scale of 0 to 100 where 0 is no effect and 100 is complete control)” value (waterhemp; 125 g ai/ha) was 95, the “Plant response rating (scale of 0 to 100 where 0 is no effect and 100 is complete control)” value (waterhemp; 250 g ai/ha) was 98 and the “Plant response rating (scale of 0 to 100 where 0 is no effect and 100 is complete control)” value (barnyardgrass [6]; 31 g ai/ha) was 30. For the same compound, the “Plant response rating (scale of 0 to 100 where 0 is no effect and 100 is complete control)” value (barnyardgrass [6]; 62 g ai/ha) was 45, the “Plant response rating (scale of 0 to 100 where 0 is no effect and 100 is complete control)” value (barnyardgrass [6]; 125 g ai/ha) was 60 and the “Plant response rating (scale of 0 to 100 where 0 is no effect and 100 is complete control)” value (barnyardgrass [6]; 250 g ai/ha) was 85. For the same compound, the “Plant response rating (scale of 0 to 100 where 0 is no effect and 100 is complete control)” value (pigweed [7]; 31 g ai/ha) was 98, the “Plant response rating (scale of 0 to 100 where 0 is no effect and 100 is complete control)” value (pigweed [7]; 62 g ai/ha) was 98 and the “Plant response rating (scale of 0 to 100 where 0 is no effect and 100 is complete control)” value (pigweed [7]; 125 g ai/ha) was 100. For the same compound, the “Plant response rating (scale of 0 to 100 where 0 is no effect and 100 is complete control)” value (pigweed [7]; 250 g ai/ha) was 100, the “Plant response rating (scale of 0 to 100 where 0 is no effect and 100 is complete control)” value (johnsongrass; 31 g ai/ha) was 75 and the “Plant response rating (scale of 0 to 100 where 0 is no effect and 100 is complete control)” value (johnsongrass; 62 g ai/ha) was 85. The “Plant response rating (scale of 0 to 100 where 0 is no effect and 100 is complete control)” value (johnsongrass; 125 g ai/ha) was 95, the “Plant response rating (scale of 0 to 100 where 0 is no effect and 100 is complete control)” value (johnsongrass; 250 g ai/ha) was 100 and the “Plant response rating (scale of 0 to 100 where 0 is no effect and 100 is complete control)” value (blackgrass; 31 g ai/ha) was 65. The “Plant response rating (scale of 0 to 100 where 0 is no effect and 100 is complete control)” value (blackgrass; 62 g ai/ha) was 70, the “Plant response rating (scale of 0 to 100 where 0 is no effect and 100 is complete control)” value (blackgrass; 125 g ai/ha) was 85 and the “Plant response rating (scale of 0 to 100 where 0 is no effect and 100 is complete control)” value (blackgrass; 250 g ai/ha) was 85. For the same compound, the “Plant response rating (scale of 0 to 100 where 0 is no effect and 100 is complete control)” value (ragweed; 31 g ai/ha) was 65, the “Plant response rating (scale of 0 to 100 where 0 is no effect and 100 is complete control)” value (ragweed; 62 g ai/ha) was 75 and the “Plant response rating (scale of 0 to 100 where 0 is no effect and 100 is complete control)” value (ragweed; 125 g ai/ha) was 80. For the same compound, the “Plant response rating (scale of 0 to 100 where 0 is no effect and 100 is complete control)” value (ragweed; 250 g ai/ha) was 85.
